US4294833A, “Substituted 4-hydroxy-isophthalic acid picolylamides having a pharmaceutical activity in thromboembolic disorders” (Societa Italo-Britannica, priority 1977, dated 1981)

Assays:
[1] = tested on: platelet aggregation induced by ADP; assay: Platelet aggregation inhibitory activity in vivo (Born aggregometer), ADP-induced; parameters: species or system New Zealand rabbits; conditions: dose for 50% inhibition of ADP-induced aggregation curve, rabbits, intraperitoneal, blood 2, 4 and 6 hours after injection; for ED50: Oryctolagus cuniculus, Platelet, ip, read-out: platelet antiaggregant activity (AAP), DI50, ADP
Summary of the method: (§1)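 Fasted New Zealand rabbits under Nembutal anaesthesia (35 mg/kg i.m.) received compound intraperitoneally. Carotid blood was taken before and 2, 4 and 6 h after dosing and citrated to prepare PRP for ADP- or thrombin-induced Born aggregometry. DI50 (mg/kg) is the dose halving the aggregation curve relative to the same animal's pre-dose plasma.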

[2] = tested on: platelet aggregation induced by thrombin; assay: Platelet aggregation inhibitory activity in vivo (Born aggregometer), thrombin-induced; parameters: species or system New Zealand rabbits; conditions: dose for 50% inhibition of thrombin-induced aggregation curve, rabbits, intraperitoneal, blood 2, 4 and 6 hours after injection; for ED50: Oryctolagus cuniculus, Platelet, ip, read-out: platelet antiaggregant activity (AAP), DI50, Thrombin
Summary of the method: as §1

[3] = tested on: thrombin-induced coagulation of platelet rich plasma; assay: Antithrombin activity on PRP, Hartert's thromboelastograph; assay type: in vivo, New Zealand rabbits; conditions: percent decrease of index ma/[r+k] vs before treatment, 20 mg/kg intraperitoneal, rabbits; for inhibition in vivo at 20 mg/kg: Oryctolagus cuniculus, Platelet, ip
Summary of the method: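 Compounds were given intraperitoneally at 20 mg/kg, and coagulation of platelet rich plasma was then induced with thrombin (60 units, pH 7.4) and recorded on a Hartert thromboelastograph. Activity is the percent decrease of the ma/(r+k) index relative to the pre-treatment value.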

[4] = tested on: CaCl2-induced plasma coagulation; assay: Anticoagulant activity on PRP, Hartert's thromboelastograph; assay type: in vivo, New Zealand rabbits; conditions: percent increase of total time for coagulum formation (r+k) vs before treatment, 25 mg/kg intraperitoneal, rabbits; for change in vivo at 25 mg/kg: Oryctolagus cuniculus, ip, read-out: anticoagulant activity (AC)
Summary of the method: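 Animals dosed at 25 mg/kg i.p.; PRP coagulation induced with 1.29% CaCl2 and followed by Hartert thromboelastography. Activity given as percent increase in r+k (total coagulum formation time) after treatment versus pre-treatment value.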

[5] = tested on: blood coagulum; assay: Fibrinolytic activity, Fearnley method (lysis of blood coagulum in toto); assay type: in vivo; conditions: percent decrease of coagulum weight after 30 minutes at 37° C., 25 mg/kg intraperitoneal, rabbits; for fibrinolytic activity (percent decrease of coagulum weight) at 25 mg/kg: Oryctolagus cuniculus, ip, 0.5 h, read-out: fibrinolytic activity (FL)
Summary of the method: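 Rabbits received compounds at 25 mg/kg i.p., and 0.2 ml ear-vein blood was drawn before and after dosing. Blood was mixed with pH 7.4 phosphate buffer and thrombin (50 NIH units/ml solution), held 30 min on ice, then 30 min at 37 °C. Activity is the percent decrease in clot weight.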

[6] = Acute toxicity, intraperitoneal; parameters: acute toxicity (LD50 / DL50): unit: mg/kg; conditions: mouse, in vivo, ip, male Swiss mice, intraperitoneal, 7 days observation; preliminary, by graphic interpolation; read-out: acute toxicity (LD50 / DL50)
Summary of the method: (§2)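 Male Swiss mice (20±2 g), fasted 18 h with water ad libitum, were dosed intraperitoneally and observed for 7 days for symptoms and deaths. Preliminary LD50 (mg/kg) was obtained by graphic interpolation.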

[7] = tested on: male Swiss mice; assay: Acute toxicity, intraperitoneal; parameters: acute toxicity (LD50 / DL50): unit: mg/kg; conditions: mouse, in vivo
Summary of the method: as §2

Compound `CCCOc1ccc(C(=O)NCc2cccnc2)cc1C(=O)NCc1cccnc1` [Example 1] has an ED50 [1] of 27.5 mg/kg, an ED50 [2] of 19.3 mg/kg and an inhibition in vivo at 20 mg/kg [3] of 38.6%. The change in vivo at 25 mg/kg [4] was 21.5%, the fibrinolytic activity (percent decrease of coagulum weight) at 25 mg/kg [5] was 32.4% and the LD50 at 168 h [6] was 600 mg/kg. The “acute toxicity (in words)” value [7] was “the acute toxicity increases with an increasing number of carbon atoms in the substituent R"”.

With `CCCCOc1ccc(C(=O)NCc2cccnc2)cc1C(=O)NCc1cccnc1` [Example 2] the ED50 [1] was 26.7 mg/kg, the ED50 [2] was 18.2 mg/kg and the inhibition in vivo at 20 mg/kg [3] was 40.1%. The change in vivo at 25 mg/kg [4] was 23.2%, the fibrinolytic activity (percent decrease of coagulum weight) at 25 mg/kg [5] was 35.7% and the LD50 at 168 h [6] was 573 mg/kg. For the same compound, the “acute toxicity (in words)” value [7] was “the acute toxicity increases with an increasing number of carbon atoms in the substituent R"”.

Compound `CCCCCOc1ccc(C(=O)NCc2cccnc2)cc1C(=O)NCc1cccnc1` [Example 3] has an ED50 [1] of 25.3 mg/kg, an ED50 [2] of 17.5 mg/kg and an inhibition in vivo at 20 mg/kg [3] of 43%. The change in vivo at 25 mg/kg [4] was 27.4%, the fibrinolytic activity (percent decrease of coagulum weight) at 25 mg/kg [5] was 36.2% and the LD50 at 168 h [6] was 380 mg/kg. The “acute toxicity (in words)” value [7] was “the acute toxicity increases with an increasing number of carbon atoms in the substituent R"”.

With `CCCCCCOc1ccc(C(=O)NCc2cccnc2)cc1C(=O)NCc1cccnc1` [Example 4] the ED50 [1] was 22.9 mg/kg, the ED50 [2] was 17.3 mg/kg and the inhibition in vivo at 20 mg/kg [3] was 47.6%. The change in vivo at 25 mg/kg [4] was 19.5%, the fibrinolytic activity (percent decrease of coagulum weight) at 25 mg/kg [5] was 41.3% and the LD50 at 168 h [6] was 175 mg/kg. The “acute toxicity (in words)” value [7] was “the acute toxicity increases with an increasing number of carbon atoms in the substituent R"”.

Work on `CCCCCCCOc1ccc(C(=O)NCc2cccnc2)cc1C(=O)NCc1cccnc1` [Example 5] yielded an ED50 [1] of 24.6 mg/kg, an ED50 [2] of 18.1 mg/kg and an inhibition in vivo at 20 mg/kg [3] of 46.5%. The change in vivo at 25 mg/kg [4] was 18%, the fibrinolytic activity (percent decrease of coagulum weight) at 25 mg/kg [5] was 38.8% and the LD50 at 168 h [6] was 181 mg/kg. For the same compound, the “acute toxicity (in words)” value [7] was “the acute toxicity increases with an increasing number of carbon atoms in the substituent R"”.

Work on `CCCCCCCCOc1ccc(C(=O)NCc2cccnc2)cc1C(=O)NCc1cccnc1` [Example 6] yielded an ED50 [1] of 25.9 mg/kg, an ED50 [2] of 19.4 mg/kg and an inhibition in vivo at 20 mg/kg [3] of 45.4%. For the same compound, the change in vivo at 25 mg/kg [4] was 16.9%, the fibrinolytic activity (percent decrease of coagulum weight) at 25 mg/kg [5] was 36.4% and the LD50 at 168 h [6] was 187 mg/kg. The “acute toxicity (in words)” value [7] was “the acute toxicity increases with an increasing number of carbon atoms in the substituent R"”.

With `CCC(C)(C)Oc1c(Cl)cc(C(=O)NCc2cccnc2)cc1C(=O)NCc1cccnc1` [Example 38] the “platelet antiaggregant activity (AAP), DI50, ADP” value [1] was 54,3 mg/kg, the “platelet antiaggregant activity (AAP), DI50, Thrombin” value [2] was 34,6 mg/kg and the “antithrombin activity (AT)” value ([3]; 20 mg/kg) was 22,0%. The “anticoagulant activity (AC)” value ([4]; 25 mg/kg) was 12,9%, the “fibrinolytic activity (FL)” value ([5]; 25 mg/kg) was 19,3% and the “acute toxicity (LD50 / DL50)” value ([7]; ip, 10080 min) was 322.
